The record followed here is patent US9732386B2, “Cell aging as a unique biomarker of major depression” (THE REGENTS OF THE UNIVERSITY OF CALIFORNIA, priority 2010, dated 2017).

Structures are written as SMILES.

The experiment relates to subjects with Major Depressive Disorder. Nature of the experiment: Hamilton Depression Rating Scale (HDRS) ratings over 8 weeks of open-label sertraline treatment. The format is in vivo, human.

On to `CN[C@H]1CC[C@@H](c2ccc(Cl)c(Cl)c2)c2ccccc21` [sertraline], for which, where the note is “Week 8 of sertraline treatment, 50 to max 200 mg per day, 16 depressed subjects, Baseline 18.50±3.65, paired t=5.67, p<0.000”, the “HDRS ratings, Mean±SD” value was found to be 10.19±4.62. Besides, where the note is “over the 8-week course of sertraline treatment, individual subjects”, the “range of changes in HDRS ratings” value is 27% worsening to 82% improvement. Moreover, the “mean improvement in HDRS ratings” value (over the 8-week course of sertraline treatment, relative to baseline) stood at 42.3±31%.
